Assay results published in patent US8034939B2, “Isoindole derivatives, compositions containing same, preparation thereof and pharmaceutical uses thereof in particular as inhibitors of chaperone protein Hsp90 activities” (Aventis Pharma S.A.., priority 2005, dated 2011).

Molecular target: Hsp82 (Saccharomyces cerevisiae, UniProt P02829)
Experiment: Hsp82 ATPase activity, PK/LDH coupled enzymatic assay (also malachite green method)
Type: biochemical
Conditions: 1 μM Hsp82, 250 μM ATP, 37° C.
Experimental: The […] released during the hydrolysis of ATP by the ATPase activity of Hsp82 is quantified by the malachite green method. In the presence of this reagent, formation of the inorganic phosphate-molybdate-malachite green complex occurs, which complex absorbs at a wavelength of 620 nm. The products to be evaluated are incubated in a reaction volume of 30 μl, in the presence of 1 μM Hsp82 and of […] of substrate (ATP) in a buffer composed of 50 mM Hepes-NaOH (pH 7.5), 1 mM DTT, 5 mM MgCl2 and 50 mM KCl at 37° C. for 60 minutes. In parallel, a range of inorganic phosphate between 1 and 40 μM is prepared in the same buffer. […] After incubation at ambient temperature for 20 minutes, the absorbance of the various wells is measured using a microplate reader at 620 nm. The concentration of […] of each sample is then calculated from the standard curve. The ATPase activity of Hsp82 is expressed as concentration of inorganic phosphate produced in 60 minutes. The effect of the various products tested is expressed as percentage inhibition of the ATPase activity. […]
The products tested are incubated in a reaction volume of 100 μl of buffer composed of 100 mM Hepes-NaOH (pH 7.5), 5 mM MgCl2, 1 mM DTT, 150 mM KCl, 0.3 mM NADH, 2.5 mM PEP and 250 μM ATP. […] The enzymatic activity of Hsp82 is then measured, continuously, in a microplate reader, at 37° C., at the wavelength of 340 nm. […]

Hsp82, sequence (P02829 whole entry): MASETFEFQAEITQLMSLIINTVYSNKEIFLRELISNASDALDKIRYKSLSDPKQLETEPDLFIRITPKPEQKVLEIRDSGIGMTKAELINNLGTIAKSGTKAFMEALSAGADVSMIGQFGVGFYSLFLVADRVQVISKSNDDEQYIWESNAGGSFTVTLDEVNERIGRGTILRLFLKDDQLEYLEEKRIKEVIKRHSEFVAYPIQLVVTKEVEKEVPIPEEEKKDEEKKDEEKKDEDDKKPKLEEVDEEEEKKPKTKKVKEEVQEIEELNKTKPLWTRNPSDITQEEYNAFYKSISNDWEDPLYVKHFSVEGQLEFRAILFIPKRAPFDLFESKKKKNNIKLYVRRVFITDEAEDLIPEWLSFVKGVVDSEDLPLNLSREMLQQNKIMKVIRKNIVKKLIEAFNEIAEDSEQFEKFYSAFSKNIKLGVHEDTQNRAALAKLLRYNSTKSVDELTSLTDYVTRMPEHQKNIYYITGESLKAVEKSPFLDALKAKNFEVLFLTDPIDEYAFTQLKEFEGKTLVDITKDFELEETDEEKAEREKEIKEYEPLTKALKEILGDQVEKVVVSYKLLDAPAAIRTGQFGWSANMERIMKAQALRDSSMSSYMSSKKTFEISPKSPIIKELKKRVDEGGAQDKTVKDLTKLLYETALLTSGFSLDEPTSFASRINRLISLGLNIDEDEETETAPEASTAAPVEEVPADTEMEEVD

| IC50 [µM] | Structure (SMILES) |
| --- | --- |
| 1 to 10 | O=C1c2ccccc2C2=C(c3nc4ccncc4[nH]3)CCCN12 [Example 1, 1-{3-H-imidazo[4,5-c]pyridin-2-yl}-3,4-dihydro-2H-pyrido[2,1-a]-isoindole-6-one] |
| 10 to 100 | O=C1c2ccccc2C2=C(c3nc4ccc(O)cc4[nH]3)CCCN12 [Example 2, 1-{1-H-6-hydroxybenzimidazol-2-yl}-3,4-dihydro-2H-pyrido[2,1-a]isoindole-6-one] |
